This is an account of results in US20240067632A1, “WEE1 Degrading Compounds and Uses Thereof” (Bristol-Myers Squibb Company, priority 2022, published 2024).

One test concerns the target T1, WEE1 (Homo sapiens, UniProt P30291+Q96SW2).
T1 construct: C-terminal ePL-tagged (DiscoverX, Fremont, CA) full-length WEE1 expression construct; expressed in transfected cells; host or cells: LentiX-HEK293T (Invitrogen), lentiviral transduction; co-expressing GSPT1-GN (G576N, lacking the first 158 amino acids)
The experiment in a line: WEE1-ePL degradation assay (LentiX-WEE1-ePL-GSPT1-ND cells, InCELL Hunter luminescence, 4 h). The class given is cell-based. The following applies: 293T-LentiX WEE1-ePL cells; for DC50: read-out: 293T-LentiX WEE1-ePL Degradation 4 hr (EC50). A digest of the protocol:
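First, compounds were pre-plated as 10-point, 3-fold dilutions (top 1 uM or 10 uM) with DMSO control; next, WEE1-ePL-expressing HEK293T cells were added and held 4 h at 37 °C; finally, InCELL Hunter reagent was applied for 30 min before luminescence reading. A 4PL fit gave EC50 and Ymin.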

A further test deals with MKN45 cells. The experiment in a line: MKN45 cell proliferation assay (Cell-Titer-Glo, 120 h). It counts as cell-based. As to conditions: for pEC50: Homo sapiens, MKN-45, 120 h, Cell-Titer-Glo, read-out: MKN45 Cell Prolif. 120 hr (EC50); for MKN45 Cell Prolif. 120 hr (Ymin-Obs): minimal percent of DMSO control observed in the concentrations tested. In outline: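 Growth inhibition was read as blank-corrected Cell-Titer-Glo luminescence expressed as percent DMSO control after 120 h at 37 C, 400 cells/well. Compounds tested in triplicate as 10-point half-log series from 1 or 10 uM, 0.1% DMSO; four-parameter fit gave EC50, and lowest observed percent control was reported as Ymin-obs.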

[1] abbreviates: lower limit of the fit (0 = luciferase inhibitor, Ymax = DMSO control).

pEC50: −log10 of the molar value. Like-named read-outs stand apart in the source and are kept apart here.

For the compound `O=C1CCC(N2Cc3cc(O[C@H]4CCN(Cc5ccc6nc(COC7COC7)ccc6c5)C4)ccc3C2=O)C(=O)N1` (stereo partly drawn) [3-(5-{[(3S)-1-({2-[(oxetan-3-yloxy)methyl]quinolin-6-yl}methyl)pyrrolidin-3-yl]oxy}-1-oxo-2,3-dihydro-1H-isoindol-2-yl)piperidine-2,6-dione], on WEE1 (setting [1]), the “293T-LentiX WEE1-ePL Degradation 4 hr (Ymin)” value is recorded as 23.84. For the same compound, the DC50 on WEE1 turned out to be 122 nM. In the test with MKN45 cells (growth inhibition), the pEC50 was 8.27. In addition, in the test on MKN45 cells, the “MKN45 Cell Prolif. 120 hr (Ymin-Obs)” value was determined as 9.252.
Turning to `O=C1CCC(N2Cc3cc(O[C@H]4CCN(Cc5cc6ccc([C@@H]7CCOC7)cc6cn5)C4)ccc3C2=O)C(=O)N1` (stereo partly drawn) [3-(1-oxo-5-{[(3S)-1-({7-[(3S)-oxolan-3-yl]isoquinolin-3-yl}methyl)pyrrolidin-3-yl]oxy}-2,3-dihydro-1H-isoindol-2-yl)piperidine-2,6-dione], the “293T-LentiX WEE1-ePL Degradation 4 hr (Ymin)” value on WEE1 (setting [1]) is 30. Also, the DC50 at WEE1 was determined as 1.66 nM. Further, in the test on MKN45 cells (growth inhibition), the negative logarithm of the EC50 (pEC50) was 8.73. For the same compound, the “MKN45 Cell Prolif. 120 hr (Ymin-Obs)” value in the test with MKN45 cells is 7.635.
Consider `Cc1nc2ccc(CN3CC[C@H](Oc4ccc5c(c4)CN(C4CCC(=O)NC4=O)C5=O)C3)cc2cc1F` (stereo partly drawn) [3-(5-{[(3S)-1-[(3-fluoro-2-methylquinolin-6-yl)methyl]pyrrolidin-3-yl]oxy}-1-oxo-2,3-dihydro-1H-isoindol-2-yl)piperidine-2,6-dione], for which the “293T-LentiX WEE1-ePL Degradation 4 hr (Ymin)” value at WEE1 (setting [1]) amounted to 33.29. Besides, the DC50 on WEE1 came out at 6.95 nM. Also, the negative logarithm of the EC50 (pEC50) with MKN45 cells (growth inhibition) was 7.27. The “MKN45 Cell Prolif. 120 hr (Ymin-Obs)” value with MKN45 cells was determined as 18.86.
With `Cc1ccc2cc(CN3CC[C@H](Oc4ccc5c(c4)CN(C4CCC(=O)NC4=O)C5=O)C3)cc(C)c2n1` (stereo partly drawn) [3-(5-{[(3S)-1-[(2,8-dimethylquinolin-6-yl)methyl]pyrrolidin-3-yl]oxy}-1-oxo-2,3-dihydro-1H-isoindol-2-yl)piperidine-2,6-dione], the “293T-LentiX WEE1-ePL Degradation 4 hr (Ymin)” value at WEE1 (setting [1]) is 29.33. At WEE1, the DC50 stood at 6.44 nM. Further, in the test on MKN45 cells (growth inhibition), the pEC50 is 7.26. Also, the “MKN45 Cell Prolif. 120 hr (Ymin-Obs)” value in the test with MKN45 cells was 13.61.
As to `Cc1ccc2cc(CN3CC[C@H](Oc4ccc5c(c4)CN(C4CCC(=O)NC4=O)C5=O)C3)ccc2n1` (stereo partly drawn) [3-(5-{[(3S)-1-[(2-methylquinolin-6-yl)methyl]pyrrolidin-3-yl]oxy}-1-oxo-2,3-dihydro-1H-isoindol-2-yl)piperidine-2,6-dione], the “293T-LentiX WEE1-ePL Degradation 4 hr (Ymin)” value at WEE1 (setting [1]) turned out to be 30.3. Besides, the DC50 at WEE1 was 3.81 nM. Besides, the pEC50 in the test on MKN45 cells (growth inhibition) was 7.65. Also, in the test with MKN45 cells, the “MKN45 Cell Prolif. 120 hr (Ymin-Obs)” value amounted to 13.85.
As for `O=C1CC[C@H](N2Cc3cc(O[C@H]4CCN(Cc5ccc6nc(N7CCOCC7)ccc6c5)C4)ccc3C2=O)C(=O)N1` [(3S)-3-(5-{[(3S)-1-{[2-(morpholin-4-yl)quinolin-6-yl]methyl}pyrrolidin-3-yl]oxy}-1-oxo-2,3-dihydro-1H-isoindol-2-yl)piperidine-2,6-dione], the “293T-LentiX WEE1-ePL Degradation 4 hr (Ymin)” value at WEE1 (setting [1]) amounted to 34.59. Besides, at WEE1, the DC50 came to 1.83 nM. Also, in the test on MKN45 cells (growth inhibition), the pEC50 is 8.01. For the same compound, in the test with MKN45 cells, the “MKN45 Cell Prolif. 120 hr (Ymin-Obs)” value was 14.56.
Consider `COC[C@H]1CCCC[C@@H]1c1ccc2cc(CN3CC[C@H](Oc4ccc5c(c4)CN(C4CCC(=O)NC4=O)C5=O)C3)ccc2n1` (stereo partly drawn) [3-(5-{[(3S)-1-({2-[(1S,2S)-2-(methoxymethyl)cyclohexyl]quinolin-6-yl}methyl)pyrrolidin-3-yl]oxy}-1-oxo-2,3-dihydro-1H-isoindol-2-yl)piperidine-2,6-dione], for which the “293T-LentiX WEE1-ePL Degradation 4 hr (Ymin)” value on WEE1 (lower limit of the fit (Ymin=0 luciferase inhibitor, Ymax DMSO control)) worked out at 21.7. Moreover, the DC50 at WEE1 was 3.03 nM. Moreover, in the test on MKN45 cells, the pEC50 is 8.85 and the “MKN45 Cell Prolif. 120 hr (Ymin-Obs)” value came to 11.37.
With `Cc1cccc2cc(CN3CC[C@H](Oc4ccc5c(c4)CN(C4CCC(=O)NC4=O)C5=O)C3)ncc12` (stereo partly drawn) [3-(5-{[(3S)-1-[(8-methylisoquinolin-3-yl)methyl]pyrrolidin-3-yl]oxy}-1-oxo-2,3-dihydro-1H-isoindol-2-yl)piperidine-2,6-dione], the “293T-LentiX WEE1-ePL Degradation 4 hr (Ymin)” value at WEE1 (setting [1]) came to 32.22. In addition, the DC50 at WEE1 came to 6.41 nM. Besides, the pEC50 in the test with MKN45 cells (growth inhibition) was 6.93. In the test with MKN45 cells, the “MKN45 Cell Prolif. 120 hr (Ymin-Obs)” value was found to be 19.68.
